From article PMC9027920, “Development of New Thiophene-Containing Triaryl Pyrazoline Derivatives as PI3Kγ Inhibitors” (Molecules, 2022)

Experiments:
[1] = tested on: HepG2 (human hepatocellular cancer cell line) cells; assay: anti-proliferation assay, MTT, HepG2 cells; type: cell-based; conditions: read-out: GI50 HepG2γ
Experimental: (§1) In this section, the anti-proliferation activity of the synthesized compounds 3a–3t was evaluated. Herein, HeLa (human epithelial cervical cancer cell line), HepG2 (human hepatoellular carcinoma cell line) and L02 (human normal hepatocyte line) cells were used. According to the affection on L02 cells, most of the tested compounds were low-toxic. […] Basically, many of the compounds in this series could inhibit the growth of HeLa and HepG2 cells effectively. The anti-proliferation inhibitory activity and the enzymatic inhibition potency indicated the consistent tendencies; the SAR of the observed anti-proliferation activity was also similar to that of the enzymatic inhibition, especially that of PI3Kγ inhibition; thus, the cellular inhibition might be caused by the effect on PI3K. […] Thus, HepG2 cells were selected to conduct further investigations at the protein level.
(§2) In this section, the cells included HeLa (human epithelial cervical cancer cell line), HepG2 (human hepatocellular cancer cell line) and L02 (human normal hepatocyte line) to evaluate the anti-proliferation activity of the synthesized compounds. The cells were cultured in Dulbecco’s modified eagle medium (DMEM, Hyclone) with the addition of 10% fetal bovine serum (FBS, BI), 2 mmol/L L-glutamine, 100 units/mL penicillin-streptomycin (Sigma-Aldrich, Saint Louis, MO, USA), […] (Hyclone, Logan, UT, USA). The environment was 5% CO2 contained atmosphere at 37 °C. The tests of anti-proliferative activity were conducted under a standard method with the typical dye 3-(4,5-dimethylthiazol-2-yl)-2,5-diphenyltetrazolium bromide (MTT) in triplicate. The LX300 Epson Diagnostic micro-plate reader (Nagano, Japan) was used to record the absorbance at 570 nm (OD570).

PI3Kγ = target: T1, PI3Kγ (Homo sapiens, UniProt P48736); assay: competitive fluorescence polarization kinase activity assay, PI3Kγ; type: biochemical; conditions: for IC50: fluorescence polarization kinase kit; for selectivity index: ratio of the IC50 values for PI3Kα and PI3Kγ
T1 construct: purchased Perkin–Elmer
Excerpt: (§3) Initially, we directly tested the inhibition potency of the synthesized compounds on PI3K by using competitive fluorescence polarization kinase kits, as mentioned in previous investigations. […] According to the significance and research maturity of the isoforms as referenced, the PI3Kα and PI3Kγ isoforms were preliminarily included here.
(§4) The competitive fluorescence polarization kinase activity assay was used to test the inhibition potency on PI3K, as mentioned in previous investigations. In general, following the instruction of the Kit (Perkin–Elmer, Waltham, MA, USA), the 10 μL scale of PI3K activity reaction was conducted with the substrate diC8-PI(4,5)P2 in a solution containing 2.5 mM MgCl2, 5 mM HEPES, […] and 10 mM DTT at pH 7.0. Into the 10 μL reaction wells with 50 ng enzyme and […], different concentrations of the tested compounds were added, respectively. The mixture was incubated at room temperature for 3 h, and the reactions were then quenched. Afterwards, the phosphoinositide binding protein and the fluorescent dye-labeled phosphoinositide tracer were added in sequence. In the dark environment in 384-well black nonbinding plates (Corning, Corning, NY, USA), the further incubation lasted for 1 h. With appropriate filters, the polarization values of the corresponding dye were recorded to calculate the enzymatic activity of PI3K in this reacting procedure. This assay was universal for evaluating the activity of different PI3K isoforms.

[2] = cytotoxicity, MTT, L02 cells; type: cell-based; conditions: human, L02 cells (human normal hepatocyte line)
Experimental: as §1, §2

[3] = tested on: HeLa (human epithelial cervical cancer cell line) cells; assay: anti-proliferation assay, MTT, HeLa cells; type: cell-based
Experimental: as §1, §2

PI3Kα = target: T2, PI3Kα (Homo sapiens, UniProt P42336); assay: competitive fluorescence polarization kinase activity assay, PI3Kα; type: biochemical; conditions: fluorescence polarization kinase kit
T2 construct: purchased Perkin–Elmer
Excerpt: as §3, §4

T1 sequence (P48736 whole entry, species assumed): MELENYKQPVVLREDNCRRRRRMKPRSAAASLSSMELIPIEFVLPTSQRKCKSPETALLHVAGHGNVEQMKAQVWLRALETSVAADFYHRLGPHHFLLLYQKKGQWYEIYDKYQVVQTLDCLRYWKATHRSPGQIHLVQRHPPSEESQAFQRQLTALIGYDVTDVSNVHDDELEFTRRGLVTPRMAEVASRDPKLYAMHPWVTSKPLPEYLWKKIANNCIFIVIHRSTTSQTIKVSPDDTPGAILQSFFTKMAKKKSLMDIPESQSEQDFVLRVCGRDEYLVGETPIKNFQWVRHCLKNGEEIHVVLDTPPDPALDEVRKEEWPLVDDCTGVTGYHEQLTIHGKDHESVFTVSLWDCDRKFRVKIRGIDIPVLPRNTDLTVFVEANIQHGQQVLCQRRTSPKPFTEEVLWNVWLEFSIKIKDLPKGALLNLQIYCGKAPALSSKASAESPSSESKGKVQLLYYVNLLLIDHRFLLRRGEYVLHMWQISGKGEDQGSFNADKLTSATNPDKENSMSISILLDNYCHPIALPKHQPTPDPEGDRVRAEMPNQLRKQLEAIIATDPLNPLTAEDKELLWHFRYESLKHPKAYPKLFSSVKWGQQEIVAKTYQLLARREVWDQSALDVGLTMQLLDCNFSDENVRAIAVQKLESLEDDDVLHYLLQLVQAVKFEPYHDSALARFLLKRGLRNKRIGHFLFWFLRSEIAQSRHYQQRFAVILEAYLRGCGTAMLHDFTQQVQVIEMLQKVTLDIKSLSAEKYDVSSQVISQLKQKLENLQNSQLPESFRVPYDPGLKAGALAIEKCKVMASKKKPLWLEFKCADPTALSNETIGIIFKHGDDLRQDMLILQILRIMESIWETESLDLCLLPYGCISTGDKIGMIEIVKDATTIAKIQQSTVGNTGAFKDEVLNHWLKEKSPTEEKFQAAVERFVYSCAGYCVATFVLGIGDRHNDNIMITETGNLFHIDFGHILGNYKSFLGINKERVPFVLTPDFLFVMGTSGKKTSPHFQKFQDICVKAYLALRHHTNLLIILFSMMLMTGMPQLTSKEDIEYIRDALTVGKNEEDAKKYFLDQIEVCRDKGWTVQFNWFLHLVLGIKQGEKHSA
T2 sequence (P42336 whole entry, species assumed): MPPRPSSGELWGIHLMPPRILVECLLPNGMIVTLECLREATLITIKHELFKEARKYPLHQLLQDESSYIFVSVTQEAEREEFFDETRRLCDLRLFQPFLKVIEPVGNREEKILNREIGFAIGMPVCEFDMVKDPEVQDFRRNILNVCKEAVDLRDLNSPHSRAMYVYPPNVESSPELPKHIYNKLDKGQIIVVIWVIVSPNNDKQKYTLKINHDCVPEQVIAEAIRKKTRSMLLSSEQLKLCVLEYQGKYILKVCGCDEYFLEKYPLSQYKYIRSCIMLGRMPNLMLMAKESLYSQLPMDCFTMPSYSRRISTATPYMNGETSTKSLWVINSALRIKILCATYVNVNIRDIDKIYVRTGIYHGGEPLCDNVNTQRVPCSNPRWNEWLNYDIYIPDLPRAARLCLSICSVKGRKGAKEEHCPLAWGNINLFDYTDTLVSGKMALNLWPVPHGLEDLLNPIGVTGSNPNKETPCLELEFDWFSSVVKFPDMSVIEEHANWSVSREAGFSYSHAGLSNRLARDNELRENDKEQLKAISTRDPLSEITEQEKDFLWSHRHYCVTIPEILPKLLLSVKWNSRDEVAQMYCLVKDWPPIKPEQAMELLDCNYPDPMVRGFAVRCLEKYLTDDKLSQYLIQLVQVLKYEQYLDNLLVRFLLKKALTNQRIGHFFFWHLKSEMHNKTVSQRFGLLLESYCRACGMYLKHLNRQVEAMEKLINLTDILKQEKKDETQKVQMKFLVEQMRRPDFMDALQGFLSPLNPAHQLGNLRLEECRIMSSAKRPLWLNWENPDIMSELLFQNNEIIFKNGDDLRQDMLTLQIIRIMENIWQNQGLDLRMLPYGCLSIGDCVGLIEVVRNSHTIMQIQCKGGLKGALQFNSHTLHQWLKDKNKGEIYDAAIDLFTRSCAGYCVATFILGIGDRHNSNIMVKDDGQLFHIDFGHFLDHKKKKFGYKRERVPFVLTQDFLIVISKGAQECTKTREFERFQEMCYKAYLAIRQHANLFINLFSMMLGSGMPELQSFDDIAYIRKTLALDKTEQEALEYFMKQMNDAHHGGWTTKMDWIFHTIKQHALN
T2 sequence (P27986 whole entry partner, species assumed): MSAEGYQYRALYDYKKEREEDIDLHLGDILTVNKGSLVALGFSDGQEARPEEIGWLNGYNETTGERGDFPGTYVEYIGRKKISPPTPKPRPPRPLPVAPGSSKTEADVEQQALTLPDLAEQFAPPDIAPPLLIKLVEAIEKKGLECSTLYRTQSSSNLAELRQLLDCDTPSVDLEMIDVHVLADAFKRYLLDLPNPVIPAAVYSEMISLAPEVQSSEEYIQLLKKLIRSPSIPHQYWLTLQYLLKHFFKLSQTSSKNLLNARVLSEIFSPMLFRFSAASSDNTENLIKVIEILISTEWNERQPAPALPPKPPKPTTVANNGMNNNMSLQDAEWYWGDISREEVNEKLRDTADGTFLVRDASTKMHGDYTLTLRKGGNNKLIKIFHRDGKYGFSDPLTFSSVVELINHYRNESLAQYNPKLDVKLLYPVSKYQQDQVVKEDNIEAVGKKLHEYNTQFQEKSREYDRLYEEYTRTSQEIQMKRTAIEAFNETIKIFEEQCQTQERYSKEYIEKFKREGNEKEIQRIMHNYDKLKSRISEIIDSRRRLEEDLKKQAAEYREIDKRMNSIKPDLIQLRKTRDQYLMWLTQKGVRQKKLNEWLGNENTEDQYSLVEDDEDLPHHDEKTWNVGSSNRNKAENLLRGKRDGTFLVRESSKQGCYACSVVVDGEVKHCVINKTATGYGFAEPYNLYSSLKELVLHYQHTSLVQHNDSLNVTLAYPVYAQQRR

Compound	GI50 [1]	IC50 (PI3Kγ)	melting point	CC50 [2]	GI50 [3]	IC50 (PI3Kα)	selectivity index (PI3Kγ)
COc1ccc2cc(C3=NN(C(=O)c4ccc(OC)c(OC)c4)C(c4cccs4)C3)ccc2c1 (centres unmarked) [3p, (3-(6-((λ1-Oxidanyl)-λ^5-methyl)naphthalen-2-yl)-5-(thiophen-2-yl)-4,5-dihydro-1H-pyrazol-1-yl)(3,4-dimethoxyphenyl)methanone]	6.31 ± 0.54 µM	3.76 ± 0.19 µM	74 to 76 °C	67.1 ± 3.9 µM	6.81 ± 0.24 µM	0.56 ± 0.045 µM	
COc1ccc(C(=O)N2N=C(c3ccc(I)cc3)CC2c2cccs2)cc1OC (centres unmarked) [3m, (3,4-Dimethoxyphenyl)(3-(4-iodophenyl)-5-(thiophen-2-yl)-4,5-dihydro-1H-pyrazol-1-yl)methanone]	40.1 ± 1.4 µM	2.52 ± 0.055 µM	69 to 71 °C	141 ± 5.6 µM	57.9 ± 3.6 µM	75.6 ± 2.4 µM	
COc1ccc(C(=O)N2N=C(c3ccc(OC)c(OC)c3)CC2c2cccs2)cc1OC (centres unmarked) [3q, (3,4-Dimethoxyphenyl)(3-(3,4-dimethoxyphenyl)-5-(thiophen-2-yl)-4,5-dihydro-1H-pyrazol-1-yl)methanone]	4.22 ± 0.13 µM	0.43 ± 0.036 µM	127 to 128 °C	41.3 ± 2.6 µM	4.72 ± 0.12 µM	5.24 ± 0.13 µM	12.2
COc1ccc(C(=O)N2N=C(c3ccc(SC)cc3)CC2c2cccs2)cc1OC (centres unmarked) [3h, (3-(4-((λ^1-Sulfanyl)-λ^5-methyl)phenyl)-5-(thiophen-2-yl)-4,5-dihydro-1H-pyrazol-1-yl) (3,4-dimethoxyphenyl)methanone]	53.3 ± 1.9 µM	18.1 ± 1.7 µM	63 to 65 °C	180 ± 4.6 µM	61.3 ± 2.3 µM	64.4 ± 3.6 µM	
O=c1cc(N2CCOCC2)oc2c(-c3ccccc3)cccc12 [LY294002, reference compound]	26.5 ± 1.9 µM			51.3 ± 1.4 µM	21.1 ± 2 µM		
COc1ccc(C(=O)N2N=C(c3cccc(F)c3)CC2c2cccs2)cc1OC (centres unmarked) [3c, (3,4-Dimethoxyphenyl)(3-(3-fluorophenyl)-5-(thiophen-2-yl)-4,5-dihydro-1H-pyrazol-1-yl)methanone]	20.4 ± 2 µM	4.21 ± 0.072 µM	50 to 51 °C	94.5 ± 4.3 µM	26.3 ± 1.7 µM	30.9 ± 1.3 µM	
COc1ccc(C(=O)N2N=C(c3ccc(C)cc3)CC2c2cccs2)cc1OC (centres unmarked) [3i, (3,4-Dimethoxyphenyl)(5-(thiophen-2-yl)-3-(p-tolyl)-4,5-dihydro-1H-pyrazol-1-yl)methanone]	48.7 ± 1.8 µM	3.03 ± 0.085 µM	165 to 167 °C	151 ± 8.9 µM	66.6 ± 1.2 µM	89.5 ± 3.4 µM	
COc1ccc(C(=O)N2N=C(c3ccc(-c4ccc(Br)cc4)cc3)CC2c2cccs2)cc1OC (centres unmarked) [3k, (3-(4’-Bromo-[1,1’-biphenyl]-4-yl)-5-(thiophen-2-yl)-4,5-dihydro-1H-pyrazol-1-yl)(3,4-dimethoxyphenyl)methanone]	46.6 ± 1.3 µM	42.7 ± 2.6 µM	75 to 77 °C	178 ± 8.7 µM	44.6 ± 2.1 µM	1.1 ± 0.061 µM	
COc1ccc(C(=O)N2N=C(c3cccc([N+](=O)[O-])c3)CC2c2cccs2)cc1OC (centres unmarked) [3e, (3,4-Dimethoxyphenyl)(3-(3-nitrophenyl)-5-(thiophen-2-yl)-4,5-dihydro-1H-pyrazol-1-yl)methanone]	5.51 ± 0.2 µM	1.12 ± 0.081 µM	76 to 78 °C	58.4 ± 2.6 µM	5.9 ± 0.2 µM	2.08 ± 0.099 µM	
COc1ccc(C2=NN(C(=O)c3ccc(OC)c(OC)c3)C(c3cccs3)C2)cc1 (centres unmarked) [3f, (3,4-Dimethoxyphenyl)(3-(4-methoxyphenyl)-5-(thiophen-2-yl)-4,5-dihydro-1H-pyrazol-1-yl)methanone]	15.1 ± 0.42 µM	0.57 ± 0.044 µM	53 to 55 °C	112 ± 8.3 µM	23.7 ± 1.2 µM	26.6 ± 1.01 µM	46.7
COc1ccc(C(=O)N2N=C(c3ccc(OCc4ccccc4)cc3)CC2c2cccs2)cc1OC (centres unmarked) [3g, (3-(4-(Benzyloxy)phenyl)-5-(thiophen-2-yl)-4,5-dihydro-1H-pyrazol-1-yl)(3,4-dimethoxyphenyl)methanone]	31.6 ± 1.4 µM	26.9 ± 1.4 µM	60 to 62 °C	104 ± 5.4 µM	31.6 ± 0.9 µM	0.92 ± 0.056 µM	
COc1ccc(C(=O)N2N=C(c3ccc(-c4ccccc4)cc3)CC2c2cccs2)cc1OC (centres unmarked) [3j, (3-([1,1’-Biphenyl]-4-yl)-5-(thiophen-2-yl)-4,5-dihydro-1H-pyrazol-1-yl)(3,4-dimethoxyphenyl)methanone]	50.6 ± 1 µM	> 100 µM	154 to 156 °C	196 ± 10 µM	75.7 ± 2.9 µM	3.92 ± 0.064 µM	
COc1ccc(C(=O)N2N=C(c3ccc(Br)cc3)CC2c2cccs2)cc1OC (centres unmarked) [3l, (3-(4-Bromophenyl)-5-(thiophen-2-yl)-4,5-dihydro-1H-pyrazol-1-yl)(3,4-dimethoxyphenyl)methanone]	15.5 ± 0.87 µM	5.11 ± 0.083 µM	71 to 73 °C	86.6 ± 3.5 µM	20.1 ± 1.7 µM	17.1 ± 0.58 µM	
COc1ccc(C(=O)N2N=C(c3ccccc3F)CC2c2cccs2)cc1OC (centres unmarked) [3b, (3,4-Dimethoxyphenyl)(3-(2-fluorophenyl)-5-(thiophen-2-yl)-4,5-dihydro-1H-pyrazol-1-yl)methanone]	50.2 ± 1.6 µM	4.43 ± 0.2 µM	118 to 120 °C	152 ± 9.5 µM	77.9 ± 3.9 µM	> 100 µM	
COc1ccc(C(=O)N2N=C(c3ccc(OC)c4ccccc34)CC2c2cccs2)cc1OC (centres unmarked) [3o, (3,4-Dimethoxyphenyl)(3-(4-methoxynaphthalen-1-yl)-5-(thiophen-2-yl)-4,5-dihydro-1H-pyrazol-1-yl)methanone]	16.9 ± 0.36 µM	9.91 ± 0.26 µM	72 to 74 °C	137 ± 4.7 µM	18.1 ± 0.85 µM	8.81 ± 0.17 µM	
COc1ccc(C(=O)N2N=C(c3cccc(Br)c3)CC2c2cccs2)cc1OC (centres unmarked) [3d, (3-(3-Bromophenyl)-5-(thiophen-2-yl)-4,5-dihydro-1H-pyrazol-1-yl)(3,4-dimethoxyphenyl)methanone]	42.6 ± 1.9 µM	2.22 ± 0.072 µM	124 to 126 °C	120 ± 4.7 µM	57.1 ± 2.6 µM	78.7 ± 4 µM	
